The record followed here is patent publication US10053454B2 (Bristol-Myers Squibb Company, priority 2013, dated 2018).

SMILES strings stand for the structures. Some results are limits rather than exact numbers.

In this test the target is BRD4 (Homo sapiens, UniProt O60885). Nature of the test: Time Resolved Fluorescence Resonance Energy Transfer (TR-FRET) binding assay. The following applies: one of the FRET assays described (BRD4 construct not given). In general terms: TR-FRET usually uses a lanthanide donor and a delayed reading to cut background.
`Cc1noc(C)c1-c1cc(C(N)=O)c2c(c1)c1ccc(C(=O)N3C[C@@H](C)O[C@@H](C)C3)cc1n2CC1CC1` [Example 2, 9-(cyclopropylmethyl)-3-(3,5-dimethyl-4-isoxazolyl)-7-((cis-2,6-dimethyl-4-morpholinyl)carbonyl)-9H-carbazole-1-carboxamide] displayed a half-inhibitory concentration (IC50) of under 50 nM.

`Cc1noc(C)c1-c1cc(C(N)=O)c2c(c1)c1ccc(C(=O)N3CCCC(F)C3)cc1n2S(C)(=O)=O` (stereo not shown) [Example 13, 3-(3,5-dimethyl-4-isoxazolyl)-7-((3-fluoro-1-piperidinyl)carbonyl)-9-(methylsulfonyl)-9H-carbazole-1-carboxamide] returned an IC50 of under 50 nM.

Turning to `Cc1noc(C)c1-c1cc(C(N)=O)c2c(c1)c1ccc(N3CCCS3(=O)=O)cc1n2CC1CC1` [Example 71, 9-(cyclopropylmethyl)-3-(3,5-dimethyl-4-isoxazolyl)-7-(1,1-dioxido-2-isothiazolidinyl)-9H-carbazole-1-carboxamide], the concentration for half-maximal inhibition (IC50) was under 50 nM.

`Cc1noc(C)c1-c1cc(C#N)c2c(c1)c1ccc(C(=O)N3CCOCC3)cc1n2CC1CC1` [Example 59, 9-(cyclopropylmethyl)-3-(3,5-dimethyl-4-isoxazolyl)-7-(4-morpholinylcarbonyl)-9H-carbazole-1-carbonitrile]: the IC50 was under 5000 nM.

On to `Cc1noc(C)c1-c1cc(C(N)=O)c2c(c1)c1ccc(C(C)(C)O)cc1n2S(=O)(=O)C1CC1` [Example 55, 9-(cyclopropylsulfonyl)-3-(3,5-dimethyl-4-isoxazolyl)-7-(1-hydroxy-1-methylethyl)-9H-carbazole-1-carboxamide], for which the 50% inhibitory concentration (IC50) was under 50 nM.

The compound `Cc1noc(C)c1-c1cc(C(N)=O)c2c(c1)c1c(C(=O)N3C[C@@H](C)O[C@@H](C)C3)cc(OC(F)(F)F)cc1n2S(C)(=O)=O` [Example 76, 3-(3,5-dimethyl-4-isoxazolyl)-5-((cis-2,6-dimethyl-4-morpholinyl)carbonyl)-9-(methylsulfonyl)-7-(trifluoromethoxy)-9H-carbazole-1-carboxamide] showed an IC50 of under 50 nM.

The compound `Cc1noc(C)c1-c1cc(C(N)=O)c2c(c1)c1c(S(C)(=O)=O)cccc1n2CC1CC1` [Example 81, 9-(cyclopropylmethyl)-3-(3,5-dimethyl-4-isoxazolyl)-5-(methylsulfonyl)-9H-carbazole-1-carboxamide] yielded a half-maximal inhibitory concentration (IC50) of under 50 nM.

In turn, `Cc1noc(C)c1-c1cc(C(N)=O)c2c(c1)c1ccc(C(=O)N3CCC(C#N)CC3)cc1n2S(=O)(=O)C1CC1` [Example 20, 7-((4-cyano-1-piperidinyl)carbonyl)-9-(cyclopropylsulfonyl)-3-(3,5-dimethyl-4-isoxazolyl)-9H-carbazole-1-carboxamide] returned a half-maximal inhibitory concentration (IC50) of under 50 nM.

As to `Cc1noc(C)c1-c1cc(C(N)=O)c2[nH]c3cc(C(=O)N4CCOCC4)ccc3c2c1` [Example 3, 3-(3,5-dimethyl-4-isoxazolyl)-7-(4-morpholinylcarbonyl)-9H-carbazole-1-carboxamide], the IC50 was under 500 nM.

The compound `Cc1noc(C)c1-c1cc(C(N)=O)c2c(c1)c1ccc(C(=O)N3CCC(F)(F)CC3)cc1n2S(C)(=O)=O` [Example 9, 7-((4,4-difluoro-1-piperidinyl)carbonyl)-3-(3,5-dimethyl-4-isoxazolyl)-9-(methylsulfonyl)-9H-carbazole-1-carboxamide] gave an IC50 of under 50 nM.

`Cc1noc(C)c1-c1cc(C(N)=O)c2c(c1)c1ccc(-c3ccncc3)cc1n2CC1CC1` [Example 36, 9-(cyclopropylmethyl)-3-(3,5-dimethyl-4-isoxazolyl)-7-(4-pyridinyl)-9H-carbazole-1-carboxamide]: the IC50 was under 500 nM.

`Cc1noc(C)c1-c1cc(C(N)=O)c2c(c1)c1ccc(CO)cc1n2CC1CC1` [Example 46, 9-(cyclopropylmethyl)-3-(3,5-dimethyl-4-isoxazolyl)-7-(hydroxymethyl)-9H-carbazole-1-carboxamide]: the IC50 is under 500 nM.

Take `Cc1noc(C)c1-c1cc(C(N)=O)c2c(c1)c1ccc(C(=O)N3CCCC(N(C)C)C3)cc1n2S(C)(=O)=O` (stereo not shown) [Example 10, 7-((3-(dimethylamino)-1-piperidinyl)carbonyl)-3-(3,5-dimethyl-4-isoxazolyl)-9-(methylsulfonyl)-9H-carbazole-1-carboxamide]: the concentration for half-maximal inhibition (IC50) is under 50 nM.

`Cc1noc(C)c1-c1cc(C(N)=O)c2c(c1)c1ccc(CN3CCOCC3)cc1n2CC1CC1` [Example 51, 9-(cyclopropylmethyl)-3-(3,5-dimethyl-4-isoxazolyl)-7-(4-morpholinylmethyl)-9H-carbazole-1-carboxamide] had an IC50 of under 500 nM.

`Cc1noc(C)c1-c1cc(C(N)=O)c2c(c1)c1ccc(C(=O)N3CCOCC3)cc1n2S(C)(=O)=O` [Example 5, 3-(3,5-dimethyl-4-isoxazolyl)-9-(methylsulfonyl)-7-(4-morpholinylcarbonyl)-9H-carbazole-1-carboxamide] gave an IC50 of under 50 nM.

`Cc1noc(C)c1-c1cc(C(N)=O)c2c(c1)c1ccc(Br)cc1n2CC1CC1` [Example 34, 7-bromo-9-(cyclopropylmethyl)-3-(3,5-dimethyl-4-isoxazolyl)-9H-carbazole-1-carboxamide] displayed an IC50 of under 500 nM.

One may read the IC50 as the midpoint of a concentration-inhibition curve. A high value points to weaker potency in that assay.
